Experimental data as given in patent US6936585B2, “Corticotropin releasing factor 2 receptor agonists” (priority 2002, dated 2005).
pEC50: −log10 of the molar value. Peptide text beside a SMILES is read from it.

What was measured:
CRF2R = biological target: T1, CRF2R (Homo sapiens, UniProt Q13324); test: CRF2R agonist activation (EC50 / Emax), called comparative CRF binding; format: cell-based; conditions: for pEC50: read-out: CRF2R EC50; for Emax: read-out: CRF2R Emax
T1 sequence (Q13324 1-411): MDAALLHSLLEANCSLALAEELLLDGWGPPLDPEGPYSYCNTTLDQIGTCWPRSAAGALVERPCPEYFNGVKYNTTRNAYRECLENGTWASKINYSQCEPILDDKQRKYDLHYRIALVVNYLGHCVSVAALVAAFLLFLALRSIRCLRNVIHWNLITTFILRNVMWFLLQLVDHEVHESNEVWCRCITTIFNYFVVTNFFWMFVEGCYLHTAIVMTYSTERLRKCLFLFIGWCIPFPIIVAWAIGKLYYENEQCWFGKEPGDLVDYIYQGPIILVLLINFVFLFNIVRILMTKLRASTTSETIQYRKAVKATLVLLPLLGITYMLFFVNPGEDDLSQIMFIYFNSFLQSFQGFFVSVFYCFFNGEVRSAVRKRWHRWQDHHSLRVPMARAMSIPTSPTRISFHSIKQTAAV
How it was run: (§1)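 Agonism at each human CRF receptor subtype is inferred from increased cAMP relative to vehicle, using cells expressing that subtype and either lysate cAMP measurement or a cAMP response element reporter.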

CRF1R = biological target: T2, CRF1R (Homo sapiens, UniProt P34998); test: CRF1R agonist activation (EC50 / Emax), called comparative CRF binding; format: cell-based; conditions: for pEC50: read-out: CRF1R EC50; for Emax: read-out: CRF1R Emax
T2 sequence (P34998 24-415): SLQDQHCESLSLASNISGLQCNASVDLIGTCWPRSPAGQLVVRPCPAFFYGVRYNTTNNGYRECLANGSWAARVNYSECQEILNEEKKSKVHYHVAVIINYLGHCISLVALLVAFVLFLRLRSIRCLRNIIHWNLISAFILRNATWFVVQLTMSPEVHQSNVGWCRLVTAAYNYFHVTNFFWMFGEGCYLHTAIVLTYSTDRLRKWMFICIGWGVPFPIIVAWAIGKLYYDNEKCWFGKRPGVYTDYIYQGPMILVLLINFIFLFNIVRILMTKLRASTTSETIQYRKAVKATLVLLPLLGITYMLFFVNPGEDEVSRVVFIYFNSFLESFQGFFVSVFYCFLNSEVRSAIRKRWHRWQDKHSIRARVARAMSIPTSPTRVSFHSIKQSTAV
How it was run: as §1

Compound | pEC50 (CRF2R) | Emax (CRF2R) [%] | pEC50 (CRF1R) | Emax (CRF1R) [%]
CC[C@H](C)[C@H](N)C(=O)N[C@H](C(=O)N[C@@H](CC(C)C)C(=O)N[C@@H](CO)C(=O)N[C@@H](CC(C)C)C(=O)N[C@@H](CC(=O)O)C(=O)N[C@H](C(=O)N1CCC[C@H]1C(=O)N[C@H](C(=O)NCC(=O)N[C@@H](CC(C)C)C(=O)N[C@@H](CC(C)C)C(=O)N[C@@H](CCC(N)=O)C(=O)N[C@H](C(=O)N[C@@H](CC(C)C)C(=O)N[C@@H](CC(C)C)C(=O)N[C@@H](CCC(=O)O)C(=O)N[C@@H](CCC(N)=O)C(=O)N[C@@H](CCCNC(=N)N)C(=O)N[C@@H](CCCNC(=N)N)C(=O)N[C@@H](C)C(=O)N[C@@H](C)C(=O)N[C@@H](CCCNC(=N)N)C(=O)N[C@@H](CCC(=O)O)C(=O)N[C@@H](CCC(N)=O)C(=O)N[C@@H](C)C(=O)N[C@H](C(=O)N[C@H](C(=O)N[C@@H](CC(N)=O)C(=O)N[C@@H](C)C(=O)N[C@@H](CCCNC(=N)N)C(=O)N[C@H](C(=O)N[C@@H](CC(C)C)C(=O)N[C@@H](C)C(=O)N[C@@H](CCCNC(=N)N)C(=O)N[C@H](C(N)=O)C(C)C)[C@@H](C)CC)[C@@H](C)O)[C@@H](C)O)[C@@H](C)CC)[C@@H](C)CC)C(C)C)C(C)C [compound 133] (H-IVLSLDVPIGLLQILLEQRRAAREQATTNARILARV-NH2; N-terminus assumed) | 7.91 | 88 | < 7.00 | 4
CC[C@H](C)[C@H](N)C(=O)N[C@H](C(=O)N[C@@H](CC(C)C)C(=O)N[C@@H](CO)C(=O)N[C@@H](CC(C)C)C(=O)N[C@@H](CC(=O)O)C(=O)N[C@H](C(=O)N1CCC[C@H]1C(=O)N[C@H](C(=O)NCC(=O)N[C@@H](CC(C)C)C(=O)N[C@@H](CC(C)C)C(=O)N[C@@H](CCC(N)=O)C(=O)N[C@H](C(=O)N[C@@H](CC(C)C)C(=O)N[C@@H](CC(C)C)C(=O)N[C@@H](CCC(=O)O)C(=O)N[C@@H](CCC(N)=O)C(=O)N[C@@H](C)C(=O)N[C@@H](C)C(=O)N[C@@H](C)C(=O)N[C@@H](C)C(=O)N[C@@H](CCCNC(=N)N)C(=O)N[C@@H](CCC(=O)O)C(=O)N[C@@H](CCC(N)=O)C(=O)N[C@@H](C)C(=O)N[C@H](C(=O)N[C@H](C(=O)N[C@@H](CC(N)=O)C(=O)N[C@@H](C)C(=O)N[C@@H](CCCNC(=N)N)C(=O)N[C@H](C(=O)N[C@@H](CC(C)C)C(=O)N[C@@H](C)C(=O)N[C@@H](CCCNC(=N)N)C(=O)N[C@H](C(N)=O)C(C)C)[C@@H](C)CC)[C@@H](C)O)[C@@H](C)O)[C@@H](C)CC)[C@@H](C)CC)C(C)C)C(C)C [compound 134] (H-IVLSLDVPIGLLQILLEQAAAAREQATTNARILARV-NH2) | – | 19 | – | 7
CC[C@H](C)[C@H](N)C(=O)N[C@H](C(=O)N[C@@H](CC(C)C)C(=O)N[C@@H](CO)C(=O)N[C@@H](CC(C)C)C(=O)N[C@@H](CC(=O)O)C(=O)N[C@H](C(=O)N1CCC[C@H]1C(=O)N[C@H](C(=O)NCC(=O)N[C@@H](CC(C)C)C(=O)N[C@@H](CC(C)C)C(=O)N[C@@H](CCC(N)=O)C(=O)N[C@H](C(=O)N[C@@H](CC(C)C)C(=O)N[C@@H](CC(C)C)C(=O)N[C@@H](CCC(=O)O)C(=O)N[C@@H](CCC(N)=O)C(=O)N[C@@H](C)C(=O)N[C@@H](C)C(=O)N[C@@H](CCCNC(=N)N)C(=O)N[C@@H](C)C(=O)N[C@@H](C)C(=O)N[C@@H](CCCNC(=N)N)C(=O)N[C@@H](CCC(=O)O)C(=O)N[C@@H](CCC(N)=O)C(=O)N[C@@H](C)C(=O)N[C@H](C(=O)N[C@H](C(=O)N[C@@H](CC(N)=O)C(=O)N[C@@H](C)C(=O)N[C@@H](CCCNC(=N)N)C(=O)N[C@H](C(=O)N[C@@H](CC(C)C)C(=O)N[C@@H](C)C(=O)N[C@@H](CCCNC(=N)N)C(=O)N[C@H](C(N)=O)C(C)C)[C@@H](C)CC)[C@@H](C)O)[C@@H](C)O)[C@@H](C)CC)[C@@H](C)CC)C(C)C)C(C)C [compound 135] (H-IVLSLDVPIGLLQILLEQAARAAREQATTNARILARV-NH2) | – | 76 | – | 6
CC[C@H](C)[C@H](N)C(=O)N[C@H](C(=O)N[C@@H](CC(C)C)C(=O)N[C@@H](CO)C(=O)N[C@@H](CC(C)C)C(=O)N[C@@H](CC(=O)O)C(=O)N[C@H](C(=O)N1CCC[C@H]1C(=O)N[C@H](C(=O)NCC(=O)N[C@@H](CC(C)C)C(=O)N[C@@H](CC(C)C)C(=O)N[C@@H](CCC(N)=O)C(=O)N[C@H](C(=O)N[C@@H](CC(C)C)C(=O)N[C@@H](CC(C)C)C(=O)N[C@@H](CCC(=O)O)C(=O)N[C@@H](CCC(N)=O)C(=O)N[C@@H](CCCNC(=N)N)C(=O)N[C@@H](C)C(=O)N[C@@H](C)C(=O)N[C@@H](CCCNC(=N)N)C(=O)N[C@@H](CCC(=O)O)C(=O)N[C@@H](CCC(N)=O)C(=O)N[C@@H](C)C(=O)N[C@H](C(=O)N[C@H](C(=O)N[C@@H](CC(N)=O)C(=O)N[C@@H](C)C(=O)N[C@@H](CCCNC(=N)N)C(=O)N[C@H](C(=O)N[C@@H](CC(C)C)C(=O)N[C@@H](C)C(=O)N[C@@H](CCCNC(=N)N)C(=O)N[C@H](C(N)=O)C(C)C)[C@@H](C)CC)[C@@H](C)O)[C@@H](C)O)[C@@H](C)CC)[C@@H](C)CC)C(C)C)C(C)C [compound 136] (H-IVLSLDVPIGLLQILLEQRAAREQATTNARILARV-NH2; N-terminus assumed) | 7.63 | 68 | < 7.00 | 8
CC[C@H](C)[C@H](N)C(=O)N[C@H](C(=O)N[C@@H](CC(C)C)C(=O)N[C@@H](CO)C(=O)N[C@@H](CC(C)C)C(=O)N[C@@H](CC(=O)O)C(=O)N[C@H](C(=O)N1CCC[C@H]1C(=O)N[C@H](C(=O)NCC(=O)N[C@@H](CC(C)C)C(=O)N[C@@H](CC(C)C)C(=O)N[C@@H](CCC(N)=O)C(=O)N[C@H](C(=O)N[C@@H](CC(C)C)C(=O)N[C@@H](CC(C)C)C(=O)N[C@@H](CCC(=O)O)C(=O)N[C@@H](CCC(N)=O)C(=O)N[C@@H](CCCNC(=N)N)C(=O)N[C@@H](C)C(=O)N[C@@H](CCCNC(=N)N)C(=O)N[C@@H](C)C(=O)N[C@@H](C)C(=O)N[C@@H](CCCNC(=N)N)C(=O)N[C@@H](CCC(=O)O)C(=O)N[C@@H](CCC(N)=O)C(=O)N[C@@H](C)C(=O)N[C@H](C(=O)N[C@H](C(=O)N[C@@H](CC(N)=O)C(=O)N[C@@H](C)C(=O)N[C@@H](CCCNC(=N)N)C(=O)N[C@H](C(=O)N[C@@H](CC(C)C)C(=O)N[C@@H](C)C(=O)N[C@@H](CCCNC(=N)N)C(=O)N[C@H](C(N)=O)C(C)C)[C@@H](C)CC)[C@@H](C)O)[C@@H](C)O)[C@@H](C)CC)[C@@H](C)CC)C(C)C)C(C)C [compound 137] (H-IVLSLDVPIGLLQILLEQRARAAREQATTNARILARV-NH2; N-terminus assumed) | – | 100 | – | 4
CC[C@H](C)[C@H](N)C(=O)N[C@H](C(=O)N[C@@H](CC(C)C)C(=O)N[C@@H](CO)C(=O)N[C@@H](CC(C)C)C(=O)N[C@@H](CC(=O)O)C(=O)N[C@H](C(=O)N1CCC[C@H]1C(=O)N[C@H](C(=O)NCC(=O)N[C@@H](CC(C)C)C(=O)N[C@@H](CC(C)C)C(=O)N[C@@H](CCC(N)=O)C(=O)N[C@H](C(=O)N[C@@H](CC(C)C)C(=O)N[C@@H](CC(C)C)C(=O)N[C@@H](CCC(=O)O)C(=O)N[C@@H](CCC(N)=O)C(=O)N[C@@H](C)C(=O)N[C@@H](C)C(=O)N[C@@H](CCCNC(=N)N)C(=O)N[C@@H](CCC(=O)O)C(=O)N[C@@H](CCC(N)=O)C(=O)N[C@@H](C)C(=O)N[C@H](C(=O)N[C@H](C(=O)N[C@@H](CC(N)=O)C(=O)N[C@@H](C)C(=O)N[C@@H](CCCNC(=N)N)C(=O)N[C@H](C(=O)N[C@@H](CC(C)C)C(=O)N[C@@H](C)C(=O)N[C@@H](CCCNC(=N)N)C(=O)N[C@H](C(N)=O)C(C)C)[C@@H](C)CC)[C@@H](C)O)[C@@H](C)O)[C@@H](C)CC)[C@@H](C)CC)C(C)C)C(C)C [compound 138] (H-IVLSLDVPIGLLQILLEQAAREQATTNARILARV-NH2; N-terminus assumed) | 7.23 | 46 | < 7.00 | 5
CC[C@H](C)[C@H](N)C(=O)N[C@H](C(=O)N[C@@H](CC(C)C)C(=O)N[C@@H](CO)C(=O)N[C@@H](CC(C)C)C(=O)N[C@@H](CC(=O)O)C(=O)N[C@H](C(=O)N1CCC[C@H]1C(=O)N[C@H](C(=O)NCC(=O)N[C@@H](CC(C)C)C(=O)N[C@@H](CC(C)C)C(=O)N[C@@H](CCC(N)=O)C(=O)N[C@H](C(=O)N[C@@H](CC(C)C)C(=O)N[C@@H](CC(C)C)C(=O)N[C@@H](CCC(=O)O)C(=O)N[C@@H](CCC(N)=O)C(=O)N[C@@H](C)C(=O)N[C@@H](C)C(=O)N[C@@H](C)C(=O)N[C@@H](CCCNC(=N)N)C(=O)N[C@@H](CCC(=O)O)C(=O)N[C@@H](CCC(N)=O)C(=O)N[C@@H](C)C(=O)N[C@H](C(=O)N[C@H](C(=O)N[C@@H](CC(N)=O)C(=O)N[C@@H](C)C(=O)N[C@@H](CCCNC(=N)N)C(=O)N[C@H](C(=O)N[C@@H](CC(C)C)C(=O)N[C@@H](C)C(=O)N[C@@H](CCCNC(=N)N)C(=O)N[C@H](C(N)=O)C(C)C)[C@@H](C)CC)[C@@H](C)O)[C@@H](C)O)[C@@H](C)CC)[C@@H](C)CC)C(C)C)C(C)C [compound 139] (H-IVLSLDVPIGLLQILLEQAAAREQATTNARILARV-NH2; N-terminus assumed) | 7.37 | 60 | < 7.00 | 4
